The text below walks through data of publication PMC7661526, “Antibiofilm effects of N,O-acetals derived from 2-amino-1,4-naphthoquinone are associated with downregulation of important global virulence regulators in methicillin-resistant Staphylococcus aureus” (Scientific Reports, 2020).

In brackets after ≈: the same amount, converted by molar mass.

The nature of series [1]: Cytotoxicity assay (MTT). Conditions: African green monkey, Vero cell monolayers. As for the experimental part: (§1) Plates were incubated for 1 h, the supernatant again removed, and 200 µL dimethyl sulfoxide (DMSO) were added to each well to dissolve the formazan crystals for 10 min. Absorbance was measured at 570 nm using an ELISA reader (Thermo Plate, TP-READER, Thermo Fisher Scientific). […] The selectivity index (SI) was calculated as follows: SI (µg/mL) = CC50/MIC[17]. Three independent experiments were performed in triplicate. Controls were performed using 2% (v/v) DMSO only.

Series [2] concerns MRSA strain CR15-071 (USA100) cells persistent to vancomycin. The series is described as follows: Vancomycin-persistent cells, high bacterial load on TSA plates. The series is classed as cell-based, Staphylococcus aureus. Conditions: 1MIC derivative (128 µg/mL) plus vancomycin 4MIC (8 µg/mL), ~10^9 CFU/ml. As for the experimental part:
For this test, we choose the MRSA strain CR15-071 representative of the ST5-SCCmecII lineage (NY/Japan-USA100 clone), since this MRSA has replaced the ST239-SCCmecIII (the Brazilian clone) in this country, and is now the most frequent MRSA lineage in Brazilian hospitals. […]. The plates were incubated at 37 °C/24 h before being examined. […]. Bacterial growth was determined by removing persistent cells from the plates and determining UFC/ml. Controls were also performed using 2% (v/v) DMSO only. Three independent experiments were performed in triplicate.

Series [3] has as its system S. aureus ATCC 25923. Description: Disk diffusion test. Type of series: cell-based, Staphylococcus aureus. The text has this:
Strain representatives of six globally spread clones/lineages of MRSA were used in this study to test the antimicrobial activity of the N,O-acetal derivatives against MRSA: NY/Japan-USA100/ST5-SCCmecII (strain CR15-071), USA300/ST8-SCCmecIV (strain USA300-0114), USA400/ST1-SCCmecIV (strain USA400-0051), Brazilian epidemic clone-BEC/ST239-SCCmecIII (strain BMB9393), pediatric clone-USA800/ST5-SCCmecIV (strain USA800-0179), and OSPC-USA1100/ST30-SCCmecIV (strain 07-040). The S. aureus ATCC 25923 was used as a control for the experiment of drug susceptibility. […] For biofilm production, tryptic soy broth (TSB; BD, Franklin Lakes, NJ, USA) was supplemented with 1% (w/v) glucose (TSB-Glu). Tryptic soy agar (TSA; BD) was used for bacterial growth. The Mueller-Hinton broth (MHB; BD) and Mueller-Hinton agar (MHA; BD) was used for susceptibility tests. All strains were maintained in 10% (v/v) glycerol stocks and stored at − 80 °C.
The antibacterial activity of 6a and its derivatives 7a, 7b, and 7c was tested as previously described using paper disks impregnated with each compound[13]. The derivatives were also analyzed quantitatively using microdilution assays in 96-well inert polystyrene microtiter plates (Nuclon; Nalge Nunc International, Rochester, NY, USA) to determine the minimal inhibitory concentration (MIC)[14]. Biological control, as well as growth conditions, were performed following CLSI recommendation[15],[16]. […] Controls were also performed using 2% (v/v) DMSO only.

Series [4] concerns mecA. Description: Real-time RT-qPCR of biofilm-associated genes. Type of series: cell-based, Staphylococcus aureus.
A short description of series [5]: in vitro. Conditions: human, pH 7.4. As for the experimental part: (§2) Erythrocytes were collected from three human volunteers in a citrate tube and washed three times (3×) with PBS (pH 7.4). All derivatives were incubated with the PBS-erythrocyte suspension for 3 h at 37 °C. The hemolysis with the release of hemoglobin was quantified by the spectrophotometric reading of the supernatant at 545 nm. Hemolysis less than 10% represented hemocompatibility and non-toxicity against erythrocyte membranes. For the positive control, the human erythrocytes were lysed with 1% (v/v) Triton X-100. The negative control was performed with 1% (v/v) DMSO only (final concentration). […] All methods were carried out in accordance with relevant guidelines and regulations. In addition, informed consent was obtained from all volunteers. Three independent experiments were performed in triplicate.

Series [6] concerns MRSA ST5-SCCmecIV (USA800). The series is described as follows: Disk diffusion test. The series is classed as cell-based, Staphylococcus aureus.
For series [7], the system named is MRSA strain BMB9393. The series is described as follows: Autolytic system: extracellular DNA (eDNA) in supernatant. Type of series: cell-based, Staphylococcus aureus. Conditions: 1/4MIC, 7b stated relative to 7c.
In series [8] the test system is Vero cell line. The series is described as follows: Cytotoxicity assay (MTT). Conditions: Vero cells, 24 h, MTT. As for the experimental part:
as §1

In series [9] the test system is human erythrocytes. The series is described as follows: Hemocompatibility assay. Conditions: highest concentration evaluated (300 µg/mL), 3 h at 37 °C. As for the experimental part: as §2

In the case of `CCOCNC1=CC(=O)c2ccccc2C1=O` [7b, 2-(ethoxymethyl)-amino-1,4-naphthoquinone], the CC50 at 24 h in series [1] was 219.9 ± 1.87 µg/mL (≈ 951 µM). Besides, the “Reduction in the total of vancomycin-persistent cells” value in series [2] is reported as “complete inhibition of persistent cells”. In addition, the Inhibition zone in [3] was 12.5±3.5 mm; in series [6], 13±0.5 mm. Further, the mecA expression result in [4] was “not significantly affected”. In addition, in [5], the hemolysis at 3 h, 300 µg/mL is 2.7 ± 0.3%. In addition, the “Amount of eDNA in bacterial supernatant (cell lysis)” value in series [7] is on record as “even higher (about two-fold)”.

As for `C#CCOCNC1=CC(=O)c2ccccc2C1=O` [7c, 2-(propynyloxymethyl)-amino-1,4-naphthoquinone], in series [8], the CC50 is listed as 20.15 ± 2.11 µg/mL (≈ 83.5 µM). Also, the Inhibition zone is 14±3.4 mm in series [3] and 13±1.0 mm in series [6]. The mecA expression result in [4] is given as “not significantly affected”. In [9], the “Hemolysis, maximum values” turned out to be 1.5 ± 0.5%. Moreover, in series [7], the “Amount of eDNA in bacterial supernatant (cell lysis)” value is recorded as “increased”.
